Patent publication US5053398A, “Sulfated homopolysaccharides as anti-AIDS virus agents” (Taito Co., Ltd., priority 1988, dated 1991)
Entries after “also recorded” stand apart in the source; their conditions may differ. Where two headings read alike, the source gives them in different places.

How the values were obtained:
[1] = test system: AIDS virus (virus derived from Tall-1/HTLV-III) in Molt-4/cl. No. 8 cells; assay: Anti-AIDS virus activities, reverse transcriptase activities (Molt-4/cl. No. 8 cells); assay type: cell-based, HIV (human immunodeficiency virus)
Description: Virus derived from Tall-1/HTLV-III were adsorbed on Molt-4/cl. No. 8 cells. Then, the cells were washed with a culture medium to remove virus not adsorbed on the cells. The cells thus obtained were subjected to the following test.
[…] Culturing was conducted for 8 days, and cytopathic effects (CPE) by virus were observed. Further, on the 8th day, the supernatant of the culture medium was sampled and subjected to the measurement of reverse transcriptase activities. The cells were subjected to an indirect immunofluorescence assay to detect the virus antigen.
The anti-AIDS virus activities were studied with respect to the sulfates of scleroglucan and pendulan thus obtained, in accordance with the method as used in Example 1(3).
Schizophyllans having different molecular weights were sulfated in accordance with method A in Example 1 (polysaccharide: 0.5 g; pyridine/sulfuric anhydride complex: 5 g; reaction time: 5 hours). The anti-AIDS virus activities were studied with respect to the polysaccharide sulfates thus obtained, in accordance with the method as described in Example 1(3). As the control, dextran sulfate was used.

AIDS virus in MT-4 cells = assay: Anti-AIDS virus activities, reverse transcriptase activities (MT-4 cells); assay type: cell-based, HIV (human immunodeficiency virus); conditions: 10 days, virus (-) 2481, virus (+) 348764
Description: Further, anti-AIDS virus activities of schizophyllan sulfates were studied by using MT-4 cells. Cells were prepared in the same manner as in Example 1(3), and into each well, 1 ml of a cell suspension containing 14×10^4 cells/ml, 1 ml of a culture medium and a sample solution were added, followed by culturing for 10 days. The anti-AIDS virus activities of schizophyllan sulfates were studied by the observation of the cytopathic effects, by the measurement of reverse transcriptase activities and by the indirect immunofluorescence assay.

[2] = test system: AIDS virus in human peripheral lymphocytes; assay: Anti-AIDS virus activities in a human peripheral blood lymphocytes system, reverse transcriptase activities; assay type: cell-based, HIV (human immunodeficiency virus); conditions: Case 2, 100 μg/ml
Description: In the foregoing Examples, the anti-AIDS virus activities of schizophyllan sulfates were studied in a subcultured cell line. In this Example, a test was conducted for the effects of schizophyllan sulfates for suppressing proliferation of AIDS virus in a human peripheral lymphocytes system. Lymphocytes were separated from peripheral blood of an AIDS patient by Ficoll-Paque Separation, washed three times with a serum-free culture medium and suspended in a culture medium containing 10% of FCS. Adsorbable cells were removed, and suspended cells were collected and suspended in a culture medium. Then, PHA and IL-2 were added thereto. Healthy human lymphocytes were prepared 3 days ahead by the above-mentioned method. Into each well of a microplate having 24 wells, 10^6 /1 ml of patient's lymphocytes, a culture medium, 10^6 /1 ml of healthy human lymphocytes and a schizophyllan sulfate solution were introduced, mixed and cultured. On the seventh day and eleventh day after initiation of the culturing, the supernatant was sampled and subjected to the measurement of reverse transcriptase activities. Into each well, a sampled supernatant and the same amount of a culture medium were introduced and culturing was continued.

AIDS virus [3] = assay: Anti-AIDS virus activities (general statements, test not specified); set-up: species or system HIV (human immunodeficiency virus); conditions: general findings of the inventors
AIDS virus [4] = conditions: background; cited from earlier work
[5] = test system: reverse transcriptase of AIDS virus; conditions: background; cited from earlier work
[6] = test system: spleen of a mouse (spleen cells); assay: Mitogenic activities (3H-thymidine uptake, mouse spleen cells); assay type: cell-based
Description: A spleen of a mouse was aseptically taken out and dispersed in a culture medium to obtain a cell suspension containing 3×10^6 cells/ml. The cells were subdivided into wells of a 96 well-microplate so as to adjust the cell number in each well to 3×10^5. A culture medium and a sample were added to each well, followed by culturing for 3 days. On the third day, 0.5 μCi of ^3 H-thymidine was added to each well, and culturing was conducted for further 7 hours. Then, the cells were harvested and thoroughly washed, and the amount of ^3 H-thymidine taken into the cells was measured by a liquid scintillation counter.

Sarcoma 180 cells = assay: Anti-tumor activities, Sarcoma 180 in mice; assay type: in vivo
Description: 2×10^6 Sarcoma 180 cells were transplanted subcutaneously into the groins of mice. Twenty four hours later, 0.05 ml of a 0.5% PBS solution of schizophyllan sulfate was administered to a rear femoral muscle. Thirty days later, the mice were killed and dissected, and tumors were taken out and weighed. The tumor inhibition rates were culculated by the following equation. [formula] where A and B denote the average tumor weights (g) of the control group and the treated group.
Each group consisted of 6 mice. To the control group, PBS was administered in the same amount as in the tested group.

Molecule: Dextran sulfate
- Reverse transcriptase activities (CPM) ([1]; 100 μg/ml, Molt-4/cl. No. 8 cells, 8 days, Table 3, virus (-) 199, virus (+) 27557): 1947 ± 64 CPM
- Reverse transcriptase activities (CPM) ([1]; 100 μg/ml, Table 8, virus (-) 621, virus (+) 51344): 1781 ± 169 CPM
- Reverse transcriptase activities (CPM) ([1]; 100 μg/ml, Table 9, virus (-) 854, virus (+) 49291): 1738 ± 251 CPM
- Reverse transcriptase activities (CPM) ([1]; 500 μg/ml, Molt-4/cl. No. 8 cells, 8 days, Table 3, virus (-) 199, virus (+) 27557): 703 ± 56 CPM
- Reverse transcriptase activities (CPM) ([1]; 500 μg/ml, Table 8, virus (-) 621, virus (+) 51344): 923 ± 32 CPM
- Reverse transcriptase activities (CPM) ([1]; 500 μg/ml, Table 9, virus (-) 854, virus (+) 49291): 923 ± 87 CPM
- Reverse transcriptase activities (CPM) (AIDS virus in MT-4 cells; 100 μg/ml): 22317 ± 4502 CPM
- Reverse transcriptase activities (CPM) (AIDS virus in MT-4 cells; 500 μg/ml): 18501 ± 2249 CPM
- Reverse transcriptase activities (CPM) ([2]; 7th day, no addition 2872): 1789 ± 53 CPM
- Reverse transcriptase activities (CPM) ([2]; 11th day, no addition 80436): 42792 ± 14582 CPM
- Reverse transcriptase activities (CPM) ([2]; 18th day, no addition 67665): 280741 ± 31039 CPM
- anti-AIDS virus activities (AIDS virus [3]): stronger activities than the sulfates of e.g. mannan, pullulan and alginic acid; also recorded: have anti-AIDS virus activities
- anti-AIDS virus activities (AIDS virus [4]): have anti-AIDS virus activities

Molecule: k-carrageenan
- inhibition of the reverse transcriptase of AIDS virus [5]: have similar physiological activities

Molecule: chondroitin sulfate
- inhibition of the reverse transcriptase of AIDS virus [5]: have similar physiological activities

Molecule: λ-carrageenan
- inhibition of the reverse transcriptase of AIDS virus [5]: have similar physiological activities

Molecule: Schizophyllan
- mitogenic activities [6]: not observed
- Mitogenic activities, Count (CPM), control ([6]; control substances, concentration not stated (printed under the 100 μg/ml column), Table 2): 1981 ± 184 CPM
- Control rate (%) (tumor inhibition rate) (Sarcoma 180 cells; 0.05 ml of 0.5% PBS solution, rear femoral muscle, 30 days): 99.0%
- Average weight (g) of tumor (wt ± S.E.) (Sarcoma 180 cells; 0.05 ml of 0.5% PBS solution, rear femoral muscle, 30 days, PBS control 4.07): 0.04 ± 0.016 g
- anti-tumor activities (Sarcoma 180 cells; mouse, in vivo): having anti-tumor activities

Molecule: .iota.-carrageenan
- inhibition of the reverse transcriptase of AIDS virus [5]: have similar physiological activities

Molecule: Cc1ccc(C(=O)Nc2ccc(S(=O)(=O)O)c3cc(S(=O)(=O)O)cc(S(=O)(=O)O)c23)cc1NC(=O)c1cccc(NC(=O)Nc2cccc(C(=O)Nc3cc(C(=O)Nc4ccc(S(=O)(=O)O)c5cc(S(=O)(=O)O)cc(S(=O)(=O)O)c45)ccc3C)c2)c1 [suramin]
- anti-AIDS virus activities (AIDS virus [4]): known to exibit anti-AIDS effects

Molecule: lentinan sulfate
- anti-AIDS virus activities (AIDS virus [3]): have anti-AIDS virus activities

Molecule: dextran
- anti-AIDS virus activities (AIDS virus [4]): having no anti-AIDS virus activities

Molecule: NC(=O)c1ncn([C@@H]2O[C@H](CO)[C@@H](O)[C@H]2O)n1 [ribavirin]
- anti-AIDS virus activities (AIDS virus [4]): known to exibit anti-AIDS effects

Molecule: heparin
- inhibition of the reverse transcriptase of AIDS virus [5]: have similar physiological activities

Molecule: interferon
- anti-AIDS virus activities (AIDS virus [4]): known to exibit anti-AIDS effects
